Consider four compounds from patent US7052834B1, “Tumor suppressor protein involved in death signaling, and diagnostics, therapeutics, and screening based on this protein” (St. Jude Children's Research Hospital, priority 1998, dated 2006).

Peptide text beside a SMILES is read from it. * marks the point of attachment. Cbz = O=C(OCc1ccccc1)*; CH2F = FC*

The test system of assay [1] is NB10. Briefly: 5-aza-cytidine treatment: caspase-8 western blot and apoptosis. The assay is classed as cell-based, human. The source says:
(§1) Caspase-8 western blot analysis of cell lysates from the NB8, NB10, and NB14 cell lines with (+) or without (−) 5-aza-2′-deoxycytidine. […] We therefore examined DNA methylation of CASP8 regulatory sequences as an alternative mechanism through which expression could be silenced, as documented for several tumor suppressor genes, such as INK4a, CDKN1, CDKN2, PTEN, MLH1, von Hippel-Lindau, and E-cadherin (Baylin et al., Adv. Cancer Res., 1998, 72:141–196; Belinsky et al., Proc. Natl. Acad. Sci. USA, 1998, 95:11891; Whang et al., Proc.Natl.Acad.Sci.USA,1998, 95:5246–5250; Merlo et al., Nature Medicine, 1995, 1:686–692).
(§2) The role of methylation of CASP8 regulatory sequences was tested by treating NB cells with 5-aza-cytidine, a compound that promotes the demethylation of CpG dinucleotides (Merlo et al., Nature Medicine, 1995, 1:686–692). When cells were treated with 10–50 μM 5-aza-cytidine for 2–3 days, caspase-8 expression was activated in the NB8 and NB11 cell lines, but not NB14 (FIG. 6A).
A general note: Immunoblotting shows a protein as a band on a membrane.

In another assay the test system is NB14. The assay is described as above. The assay is classed as cell-based, human. To be noted: after 10–50 μM for 2–3 days.
Description: as §1, §2

In assay [2] the test system is NB8. The description is as above. The format is cell-based, human.
Description: as §1, §2

The test system of another assay is NB11. Briefly: 5-aza-cytidine treatment: caspase-8 western blot. The assay is classed as cell-based, human. The conditions noted are these: 10–50 μM for 2–3 days.
Description: as §1, §2

A further assay deals with neuroblastoma cell lines. Briefly: Apoptosis after re-establishing caspase-8 expression. The assay is classed as cell-based, human. To be noted: cell lines not expressing caspase-8. The source says:
The present invention is based, in part, on the surprising discovery that CASP8 is functionally inactivated in greater than 90% of all MYCN amplified neuroblastoma cell lines analyzed. Neuroblastoma is a pediatric solid tumor, and those cases with MYCN amplification have a particularly poor prognosis. […] This discovery is significant in oncology, because cells in which caspase-8 is not expressed are not capable of undergoing apoptosis mediated by death receptors such as Fas and DR3.

A further assay relates to NB3. Briefly: Doxorubicin-induced apoptosis (TUNEL). To be noted: 0.1 mM doxorubicin for 48 hrs, percentage of cell death by TUNEL. The format is cell-based, human.
The subject of a further assay is NB5. Briefly: Doxorubicin-induced apoptosis (TUNEL). The assay is classed as cell-based, human. The conditions noted are these: 0.1 mM doxorubicin for 48 hrs, percentage of cell death by TUNEL.
The test system of another assay is NB7. Description: Doxorubicin-induced apoptosis (TUNEL). The assay is classed as cell-based, human. As for the experimental part: (§3) In order to determine whether exogenous expression of caspase-8 resensitized caspase-8 null NB cells to chemotherapeutic agents, NB7 cells and NB7 cells transduced with pMSCV-Casp8(wt) were treated with doxorubicin. Doxorubicin-induced neuroblastoma apoptosis has previously been linked to the Fas receptor pathway (Fulda et al., Cancer Res., 1997, 57:3823–3829). The NB7 cell line was chosen since it lacks a functional CASP8 gene (FIGS. 4 and 5, Table 2).

In assay [3] the test system is NB8. Description: Doxorubicin-induced apoptosis (TUNEL). To be noted: 0.1 mM doxorubicin for 48 hrs. The assay is classed as cell-based, human.
The test system of the next assay is NB cell lines. Description: Sensitivity of NB cell lines to doxorubicin-induced apoptosis. The format is cell-based, human. As to the method:
as §3

Assay [4] has as its system NB10. Description: Fas mAb-induced apoptosis in cells with programmed caspase-8 expression. The format is cell-based, human. To be noted: zVAD-fmk added prior to programmed expression of caspase-8. As to the method:
(§4) FIGS. 8A, 8B, 8C, 8D, and 8E. Effects of retrovirus expression of caspase-8 in three different NB cell lines that are caspase-8 nulls. […] The caspase-8(DN) product migrates at a higher molecular weight due to an HA-tag attached to its carboxyl-terminus. B, C:Morphology of NB7/Casp8 cells 5 hours after treatment with TNFα and cycloheximide. Membrane blebbing (Nomarski view, B) and condensed chromatin (visualized by DAPI staining, C), characteristics of apoptotic cells, are clearly visible. D:Percentage of cells that are positive for cell surface annexin-V staining, another hallmark of apoptotic cells. The various cell lines and their treatment regimens are shown at the bottom. E: Apoptotic induction by Fas mAb in proliferating NB8 and NB10 cells stably expressing caspase-8 at a low level. Induction measured as percentage of cells that are TUNEL-positive. The various cell lines and their treatment regimens are shown at the bottom.
(§5) Apoptotic assays. Cells were collected for annexin V-FITC staining and FACS analysis after the culture media containing zVAD-fmk was removed and replaced with normal culture medium for 6 hours in NB8 and NB 10. […] Viable cells were determined by light and immunofluorescent microscopy after removal of the zVAD-fmk containing culture medium and incubation at 37° C. for 0.5, 1, 2, 4 and 6 hrs for the pMSCV-Casp 8(wt) and DN transduced NB8 and NB10 cells. […]

Assay [5] relates to NB8. The assay is described as above. The format is cell-based, human. To be noted: zVAD-fmk added prior to programmed expression of caspase-8. As for the experimental part: as §4, §5
A further assay has as its target TNFR p55 (human) (UniProt P19438). Description: cell-based or functional assay.

TNFR p55 (human), sequence (P19438 30-455): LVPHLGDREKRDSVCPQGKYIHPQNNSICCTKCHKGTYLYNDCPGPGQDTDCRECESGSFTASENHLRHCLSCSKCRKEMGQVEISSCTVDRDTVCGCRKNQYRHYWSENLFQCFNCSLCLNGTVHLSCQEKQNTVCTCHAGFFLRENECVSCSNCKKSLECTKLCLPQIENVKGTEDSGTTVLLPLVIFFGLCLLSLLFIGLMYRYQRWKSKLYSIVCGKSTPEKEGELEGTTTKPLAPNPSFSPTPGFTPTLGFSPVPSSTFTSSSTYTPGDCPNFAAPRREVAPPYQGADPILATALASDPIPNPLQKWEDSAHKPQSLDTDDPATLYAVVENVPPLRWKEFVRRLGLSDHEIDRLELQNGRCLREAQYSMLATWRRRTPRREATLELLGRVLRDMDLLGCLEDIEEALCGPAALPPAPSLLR

`Nc1ncn([C@@H]2O[C@H](CO)[C@@H](O)[C@H]2O)c(=O)n1` [5-aza-cytidine]: the caspase-8 expression result is reported as “results in the expression of caspase-8” with NB10 [1] (FIG. 6A), “activated” with NB8 [2] (10–50 μM for 2–3 days) and “activated” in the assay on NB11. Further, the spontaneous apoptosis result is “underwent spontaneous apoptosis” in the assay with NB10 [1] (after 10–50 μM for 2–3 days), “not” in the assay with NB14 and “underwent spontaneous apoptosis” in the assay with NB8 [2] (after 10–50 μM for 2–3 days). For the same compound, the “apoptosis when caspase-8 expression is re-established” value in the assay on neuroblastoma cell lines is “undergo apoptosis”.

As to `COc1cccc2c1C(=O)c1c(O)c3c(c(O)c1C2=O)C[C@@](O)(C(=O)CO)C[C@@H]3O[C@H]1C[C@H](N)[C@H](O)[C@H](C)O1` [Doxorubicin, doxorubicin], the “Doxorubicin-induced Apoptosis” value with NB3 is recorded as 52 +/− 4%; with NB5 it was 54 +/− 4.6%; in the assay with NB7 (NB7, 0.1 mM doxorubicin for 48 hrs, percentage of cell death by TUNEL), 24 +/− 3%; in the assay with NB8 [3] (NB8, percentage of cell death by TUNEL), 18 +/− 2.6%. The “Doxorubicin-induced Apoptosis (+caspase-8)” value in the assay on NB7 (NB7 +caspase-8, 0.1 mM doxorubicin for 48 hrs, TUNEL) was 42 +/− 2.6%; with NB8 [3] (NB8 +caspase-8, TUNEL), 38 +/− 2%. The “increase in the level of cell death” value in the assay with NB7 (NB7 cells expressing functional caspase-8 vs parental/pMSCV/pMSCV-Casp8(DN), low levels of doxorubicin) is reported as 70–100%. In addition, the “apoptosis after exposure to low levels of doxorubicin” value with NB7 (parental NB7 cells and those transduced with pMSCV or pMSCV-Casp8(DN)) was “very limited apoptosis”. Moreover, the “sensitization to doxorubicin-induced apoptosis” value is given as “more sensitized” in the assay with NB cell lines (NB cell lines (e.g., NB16 and NB21) expressing caspase-8); “not sensitized” in the assay on NB cell lines (cell lines that do not express caspase-8, regardless of Fas/CD95 status).

On to `COC(=O)C[C@H](NC(=O)[C@H](C)NC(=O)[C@@H](NC(=O)OCc1ccccc1)C(C)C)C(=O)CF` [zVAD-fmk] (Cbz-Val-Ala-Asp(OMe)-CH2F), for which the “apoptosis induced by agonistic Fas mAb” value in the assay with NB10 [4] and with NB8 [5] was “blocked” in each case.

TNF-α (ligand): in the assay with TNFR p55 (human), the apoptosis of NB7 cells lacking caspase-8, five hours after TNF-α/CHX treatment (annexin-V staining) was determined as 5% and the apoptosis of NB7 cells transduced with pMSCV-Casp8(wt), five hours after TNF-α/CHX treatment (DAPI, annexin-V staining) was 40%.
